According to article PMC11603275, “Synthesis and Antimicrobial Evaluation of New 1,2,4-Triazolo[1,5-a]pyrimidine-Based Derivatives as Dual Inhibitors of Bacterial DNA Gyrase and DHFR” (ACS Omega, 2024):
≈ marks a conversion by molar mass, not a printed value. Read-outs that look alike come from different tables or passages of the source.

Legend:
B. subtilis [1] = test: Minimum bactericidal concentration (MBC) assay; type: cell-based, Bacillus subtilis
Description: (§1) The MBC differs from the MIC. […] Unlike the MBC, which leads to mortality, the MIC hinders bacterial growth without causing death.[41] The common expression for MBC is MBC50, signifying the antibiotic concentration that eliminates 50% of the initial bacterial population.[42]

S. aureus [2] = test: MIC assay, 2-fold serial dilution in 96-well microtiter plate; type: cell-based, Staphylococcus aureus (ATCC 12600)
Protocol: (§2) The outcomes of this in vitro assay test align with the results of the antimicrobial sensitivity test.
(§3) Appendix A (Supplementary File) provides experimental details.
(§4) In 96-well microtiter plates and […] of fresh bacterial culture of a single McFarland unit overnight, a double serial dilution of each compound […] in sterile standard saline were prepared to every single source well. […] The plates were incubated at 37 °C overnight. As an indicator of bacterial growth, […] of p-iodonitrotetrazolium violet (INT) was added to each well and incubated at 37 °C for 30 min. […] The colorless tetrazolidium salt acts as an electron accepter and is reduced to a red colored formazan product by biological activity organisms. Where bacterial growth was inhibited, the solution in the well remained clear after incubation with INT.

P. aeruginosa [3] = test: Modified disk diffusion, inhibition zone; conditions: P. aeruginosa (G-)
E. coli [4] = test: Minimum bactericidal concentration (MBC) assay; type: cell-based, Escherichia coli
Description: as §1

C. albicans [5] = test: Modified disk diffusion, inhibition zone; conditions: C. albicans (fungi)
P. aeruginosa [6] = test: MIC assay, 2-fold serial dilution in 96-well microtiter plate; type: cell-based, Pseudomonas aeuroginosa (ATCC 10145)
Protocol: as §2, §3, §4

S. aureus [7] = test: Modified disk diffusion, inhibition zone; conditions: S. aureus (G+)
C. albicans [8] = test: Antifungal MIC assay, 2-fold serial dilution; type: cell-based, Candida albicans; conditions: Candida albicans, read-out: MIC
S. aureus [9] = test: Minimum bactericidal concentration (MBC) assay; type: cell-based, Staphylococcus aureus
Description: as §1

P. aeruginosa [10] = test: Minimum bactericidal concentration (MBC) assay; type: cell-based, Pseudomonas aeuroginosa
Description: as §1

A. flavus [11] = test: Antifungal MIC assay, 2-fold serial dilution; type: cell-based, Aspergillus flavus; conditions: Aspergillus flavus, read-out: MIC
E. coli [12] = test: Modified disk diffusion, inhibition zone; conditions: E. coli (G-)
A. flavus [13] = test: Modified disk diffusion, inhibition zone; conditions: A. flavus (fungi)
E. coli [14] = test: MIC assay, 2-fold serial dilution in 96-well microtiter plate; type: cell-based, Escherichia coli (ATCC 11775); conditions: Escherichia coli, read-out: MIC
Protocol: as §2, §3, §4

B. subtilis [15] = test: Modified disk diffusion, inhibition zone; conditions: B. subtilis (G+)
[16] = tested on: Gram-positive and Gram-negative bacteria (B. subtilis, S. aureus, E. coli, P. aeruginosa); test: Disk diffusion, inhibition zones summarised over the tested bacterial strains; conditions: over the four tested bacterial strains
DHFR E. coli = biological target: T1, DHFR E. coli (Escherichia coli, UniProt P0ABQ4); test: DHFR inhibitory assay; type: biochemical
T1 construct: purchased Inspiralis
T1 sequence (P0ABQ4 whole entry): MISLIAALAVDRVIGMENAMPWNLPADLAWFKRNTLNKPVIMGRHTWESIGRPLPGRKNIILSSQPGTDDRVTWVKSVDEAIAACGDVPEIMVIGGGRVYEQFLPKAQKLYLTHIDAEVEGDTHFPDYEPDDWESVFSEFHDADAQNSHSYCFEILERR
Protocol: (§5) IC50 values were determined using seven different inhibitor concentrations and then calculated using the GraphPad Prism 6.0 software.

E. coli DNA gyrase = biological target: T2, E. coli DNA gyrase (Escherichia coli, UniProt P0AES6); test: DNA gyrase inhibitory (supercoiling) assay; type: biochemical
T2 construct: purchased Inspiralis
Protocol: as §5
All the final compounds were tested for E. coli DNA gyrase inhibitory activity in a supercoiling assay. Activities were determined on streptavidin-coated 96-well microtiter plates from Thermo scientific Pierce. […] After washing off the unbound oligonucleotide, the enzyme test was performed. […] After that, the TF buffer (50 mM NaOAc with pH 5.0, 50 mM NaCl and 50 mM MgCl2) was added to terminate the enzymatic reaction. After additional incubation for 30 min at rt, during which biotin-oligonucleotide-plasmid triplex was formed, the unbound plasmid was washed off using TF buffer and SybrGOLD in T10 buffer (10 mM Tris HCl with pH 8.0 and 1 mM EDTA) was added. […] Initial screening was done at 100 or 10 μM concentration of inhibitors. […] GraphPad Prism software was used to calculate the IC50 values. The result is given as the average value of three independent measurements.

B. subtilis [17] = test: MIC assay, 2-fold serial dilution in 96-well microtiter plate; type: cell-based, Bacillus subtilis (ATCC 6051)
Protocol: as §2, §3, §4

tested bacteria = test: MIC summarised over the tested bacteria (abstract); type: cell-based; conditions: read-out: MIC values
Protocol: as §2, §4

Gram-positive bacteria = test: MBC summarised over Gram-positive bacteria; type: cell-based
Description: as §1

[18] = biological target: S. aureus topoisomerase IV; set-up: method as in ref 44 (a number printed in a supplementary file, which may have a reference list of its own: not looked up in the article's list); conditions: internal standard value given in the method; cited from earlier work
[19] = tested on: Gram-positive and Gram-negative bacterial strains; set-up: method as in ref 29 = [29]; Ghaly M. A.; El-Bendary E. R.; Shehata I. A.; Bayomi S. M.; Habib E. Synthesis, antimicrobial activity, DNA-binding affinity and molecular docking of certain 1, 2, 4-triazolo [1, 5-a] pyrimidines; conditions: cited from earlier work
[20] = biological target: DNA, Gram-positive strains; set-up: method as in ref 29 = [29]; Ghaly M. A.; El-Bendary E. R.; Shehata I. A.; Bayomi S. M.; Habib E. Synthesis, antimicrobial activity, DNA-binding affinity and molecular docking of certain 1, 2, 4-triazolo [1, 5-a] pyrimidines; conditions: cited from earlier work
[21] = biological target: DNA, Gram-negative strains; set-up: method as in ref 29 = [29]; Ghaly M. A.; El-Bendary E. R.; Shehata I. A.; Bayomi S. M.; Habib E. Synthesis, antimicrobial activity, DNA-binding affinity and molecular docking of certain 1, 2, 4-triazolo [1, 5-a] pyrimidines; conditions: cited from earlier work
[22] = Bacillus subtilis, read-out: MBC
[23] = Staphylococcus aureus, read-out: MIC
[24] = Escherichia coli, read-out: MBC
[25] = Pseudomonas aeruginosa, read-out: MIC
[26] = Staphylococcus aureus, read-out: MBC
[27] = Pseudomonas aeruginosa, read-out: MBC
[28] = Bacillus subtilis, read-out: MIC

| Structure (SMILES) | MBC (B. subtilis [1]; [22]) [µM] | MIC (S. aureus [2]; [23]) [µM] | Inhibition Zone (IZ) Diameter (P. aeruginosa [3]) [mm/mL] | MBC (E. coli [4]) [nM] | MBC (E. coli [4]; [24]) [nM] | Inhibition Zone (IZ) Diameter (C. albicans [5]) [mm] | MIC (P. aeruginosa [6]) [µM] | MIC (P. aeruginosa [6]; [25]) [µM] | Inhibition Zone (IZ) Diameter (S. aureus [7]) | MIC (C. albicans [8]) [µM] | MBC (S. aureus [9]; [26]) [µM] | MBC (P. aeruginosa [10]) [nM] | MBC (P. aeruginosa [10]; [27]) [nM] | MIC (A. flavus [11]) [µM] | Inhibition Zone (IZ) Diameter (E. coli [12]) [mm/mL] | Inhibition Zone (IZ) Diameter (A. flavus [13]) [mm/mL] | MIC (E. coli [14]) [µM] | Inhibition Zone (IZ) Diameter (B. subtilis [15]) [mm/mL] | Inhibition Zone (IZ) Diameter [16] | MIC (B. subtilis [17]; [28]) [µM] | also measured |
| --- | --- | --- | --- | --- | --- | --- | --- | --- | --- | --- | --- | --- | --- | --- | --- | --- | --- | --- | --- | --- | --- |
| COc1ccc(-c2cc(-c3ccc(OC)cc3)n3nc(-c4ccccc4)nc3n2)cc1 [Compound 9p, 5,7-Bis(4-methoxyphenyl)-2-phenyl-1,2,4-triazolo[1,5-a]pyrimidine] | 0.052 ± 0.003 (≈ 0.0212 µg/mL) | 0.069 (≈ 0.0282 µg/mL) | 38 | 97 ± 6 (≈ 0.0396 µg/mL) | 97 (≈ 0.0396 µg/mL) | 31 | 0.068 ± 0.005 (≈ 0.0278 µg/mL) | 0.068 (≈ 0.0278 µg/mL) | 39 | 23.7 ± 1 (≈ 9.68 µg/mL) | 0.069 ± 0.003 (≈ 0.0282 µg/mL) | 98 ± 6 (≈ 0.04 µg/mL) | 98 (≈ 0.04 µg/mL) | 19.9 ± 1 (≈ 8.13 µg/mL) | 37 | 30 | 0.069 ± 0.004 (≈ 0.0282 µg/mL) | 38 | approximately 38 mm | 0.035 ± 0.002 (≈ 0.0143 µg/mL) | MIC (S. aureus [2]): 0.037 ± 0.002 µM (≈ 0.0151 µg/mL); IC50 (DHFR E. coli): 5.4 ± 0.2 µM; IC50 (E. coli DNA gyrase): 205 ± 13 nM |
| O=C(O)c1cn(C2CC2)c2cc(N3CCNCC3)c(F)cc2c1=O [Ciprofloxacin, reference compound] | 0.019 (≈ 0.0063 µg/mL) | 0.03 ± 0.002 (≈ 0.00994 µg/mL) | 40 | 90 ± 6 (≈ 0.0298 µg/mL) | 90 (≈ 0.0298 µg/mL) | – | 0.06 ± 0.005 (≈ 0.0199 µg/mL) | 0.06 (≈ 0.0199 µg/mL) | – | – | 0.046 (≈ 0.0152 µg/mL) | 90 ± 6 (≈ 0.0298 µg/mL) | 90 (≈ 0.0298 µg/mL) | – | 40 | – | 0.06 ± 0.004 (≈ 0.0199 µg/mL) | 40 | 40 mm | 0.01 (≈ 0.00331 µg/mL) | MBC (B. subtilis [1]): 0.019 ± 0.001 µM (≈ 0.0063 µg/mL); MBC (S. aureus [9]): 0.045 ± 0.002 µM (≈ 0.0149 µg/mL); MIC (tested bacteria): 10 to 90 µM (≈ 3.31 to 29.8 µg/mL); MBC (Gram-positive bacteria): 0.019 to 0.045 µM (≈ 0.0063 to 0.0149 µg/mL); MIC (B. subtilis [17]): 0.01 ± 0.001 µM (≈ 0.00331 µg/mL) |
| CO[C@@H]1[C@@H](OC(N)=O)[C@@H](O)[C@H](Oc2ccc3c(O)c(NC(=O)c4ccc(O)c(CC=C(C)C)c4)c(=O)oc3c2C)OC1(C)C [Novobiocin] | – | – | – | – | – | – | – | – | – | – | – | – | – | – | – | – | – | – | – | – | IC50 [18]: 26.7 µM |
| COc1ccc(CCc2nc3[nH]cc(C(=O)NN)c(=O)n3n2)cc1OC [IIIa] | – | – | – | – | – | – | – | – | – | – | – | – | – | – | – | – | – | – | – | – | MIC [19]: ≥ 2 µg/mL; IC50, DNA displacement experiment [20]: 61 µg/mL (≈ 170 µM); IC50, DNA displacement experiment [21]: 40 µg/mL (≈ 112 µM) |
| COc1ccc(-c2cc(-c3ccc(Cl)cc3)n3nc(-c4ccccc4)nc3n2)cc1 [Compound 9n, 7-(4-Chlorophenyl)-5-(4-methoxyphenyl)-2-phenyl-1,2,4-triazolo[1,5-a]pyrimidine] | 0.049 (≈ 0.0202 µg/mL) | 0.033 ± 0.002 (≈ 0.0136 µg/mL) | 40 | 93 ± 6 (≈ 0.0384 µg/mL) | 93 (≈ 0.0384 µg/mL) | 36 | – | 0.064 ± 0.005 (≈ 0.0264 µg/mL) | 41 | 21.9 ± 1 (≈ 9.04 µg/mL) | 0.065 ± 0.002 (≈ 0.0268 µg/mL) | 94 ± 6 (≈ 0.0388 µg/mL) | 94 (≈ 0.0388 µg/mL) | 18.5 ± 1 (≈ 7.64 µg/mL) | 40 | 32 | 0.065 ± 0.004 (≈ 0.0268 µg/mL) | 40 | approximately 40 mm | 0.029 ± 0.002 (≈ 0.012 µg/mL) | MBC (B. subtilis [1]): 0.049 ± 0.002 µM (≈ 0.0202 µg/mL); folds less potent than ciprofloxacin as a bactericidal agent (MBC) (B. subtilis [1]): 2.6; IC50 (DHFR E. coli): 4.6 ± 0.2 µM; IC50 (E. coli DNA gyrase): 190 ± 11 nM; times less effective than ciprofloxacin (MIC) (B. subtilis [17]): 3 |
